The test system of one assay is adult male C57 mice. Kind of assay: Tail suspension test (TST). In kind it is in vivo, mouse. As to the method: The experiments were performed using adult male C57 mice (6-10 weeks of age, 20-30 g, Hilltop Lab, PA). The mice were housed in standard rodent cages with stainless steel mesh wire bar lids in groups of 4 with controlled temperature and light cycle (6:00 a.m.-6:00 p.m.). Animals were given free access to food (Harlan Teklad Global 18% protein (Madison, WI)) and water during a minimum 2-day habituation period to the laboratory. Animals that were used in the study were handled, housed, and sacrificed (using compressed CO2) in accord with the current NIH guidelines regarding the use and care of laboratory animals, and all applicable local, state, and federal regulations and guidelines. Animals are identified by cage number, and by markings applied to the proximal tip of the tail using a permanent marker. Group sizes (n=8, and therefore 30-50 animals per study) provide reliable estimates of treatment effects, and this species and strain of mouse has been recognized as appropriate for pharmacology studies.
To measure efficacy of the compounds the compounds were tested using a tail suspension test. The tail suspension test is a behavioral test used to evaluate the efficacy of antidepressant drugs in rodents. In the TST, mice (n=8/group) were suspended by the tail with tape approximately 30-50 cm above the lab bench. Mice are positioned such that the base of their tail is perpendicular to the lab bench. Each mouse is given 1 trial that last 6 minutes. The total duration of immobility is calculated as the percentage of time that the mouse is immobile. The duration of immobility is the main parameter measured. This is calculated from the cumulated time during which the animals is absent of initiated movements including passive swaying. When antidepressant drugs are administered, immobility is decreased by a variety of classes of antidepressant drugs. One or more of the compounds show antidepressant activity.

Assay [1] concerns the target T1, delta-opioid receptor (hDOR) (Homo sapiens, UniProt P41143). Kind of assay: cAMP assay (receptor G-protein mediated response). In kind it is cell-based. Particulars: efficacy, normalized against DPDPE. As to the method:
(§1) Clonal stable lines were subsequently selected under G418.
(§2) Cell lines were grown adherently in Minimum Essential Media (Cellgro cat #10-010-CM) containing 10% fetal bovine serum (Hyclone cat #SH30071.03), 4 mM glutamine (Cellgro cat #25-005-CI), 150 ug/ml hygromycin B (Cellgro cat #30-240-CR), 150 ug/ml G418 (Cellgro cat #30-234-CR), and 50 u/50 ug penicillin/streptomycin (Lonza cat #17-603E). Prior to the assay cells were removed from the flasks with CellStripper (Cellgro cat #25-056-CI), repeatedly pipetted to disperse cells, and spun at low speed for 5 min at room temperature. Cells were then resuspended at 250,000 cells/ml in growth media and plated at 5,000 cells/well in 384 well plates (Greiner part #784080). Plates were incubated overnight at 37° C., 5% CO2 in a humidified incubator.
Receptor G-protein mediated responses were determined by measuring changes in intracellular cAMP using CisBio HTRF cAMP HiRange kit (cat #62AM6PEJ) based on time-resolved fluorescence resonance energy transfer (TR-FRET). […] Following a 30 minute incubation at 37° C. the components of the cAMP HiRange kit were added as directed and the plates were read after 1 hour on a BMG PheraStar plate reader. Responses were measured as the ratio of fluorescence at 665 nm/620 nm per manufacturer's instructions.

In assay [2] the target is T1, delta-opioid receptor (hDOR). Put plainly: β-Arrestin recruitment assay (PathHunter). In kind it is cell-based. The procedure:
as §1, §2
Receptor mediated beta-arrestin recruitment was determined using the DiscoveRx β-arrestin PathHunter Detection kit (cat #93-0001). In this system, β-Arrestin is fused to an N-terminal deletion mutant of β-galactosidase (termed the enzyme acceptor of EA) and the GPCR of interest is fused to a smaller (42 amino acids), weakly complementing fragment termed ProLink™. […] Following a 60 minute incubation at 37° C. the components of the DiscoveRx β-arrestin PathHunter Detection kit were added as directed and the plates were read after 1 hour on a BMG PheraStar plate reader.

Assay [3] deals with mu- and kappa-opioid receptors. Particulars: versus mu- and kappa-opioid receptors.
Description: Plasmids encoding delta-opioid receptor (Accession NP_000902), mu-opioid receptor (Accession NP_000905) and kappa-opioid receptor (Accession Assession NP_000903) were generated in the pCMV-Prolink backbone and transfected into an EA-arrestin parental human embryonic kidney (HEK-293) cell line from DiscoveRx Corporation. Clonal stable lines were subsequently selected under G418.
The values are normalized against DPDPE ([D-Pen2,5]Enkephalin, [D-Pen2,D-Pen5]Enkephalin), which is a known agonist of the receptor. Compound selectivity was also evaluated by testing compounds on the mu- and kappa-opioid receptors, the values from which were normalized against DAMGO ([D-Ala2, N-Me-Phe4, Gly5-ol]-Enkephalin acetate salt) and U69,593, respectively.

Molecules are shown by their SMILES.

T1 sequence (P41143 whole entry): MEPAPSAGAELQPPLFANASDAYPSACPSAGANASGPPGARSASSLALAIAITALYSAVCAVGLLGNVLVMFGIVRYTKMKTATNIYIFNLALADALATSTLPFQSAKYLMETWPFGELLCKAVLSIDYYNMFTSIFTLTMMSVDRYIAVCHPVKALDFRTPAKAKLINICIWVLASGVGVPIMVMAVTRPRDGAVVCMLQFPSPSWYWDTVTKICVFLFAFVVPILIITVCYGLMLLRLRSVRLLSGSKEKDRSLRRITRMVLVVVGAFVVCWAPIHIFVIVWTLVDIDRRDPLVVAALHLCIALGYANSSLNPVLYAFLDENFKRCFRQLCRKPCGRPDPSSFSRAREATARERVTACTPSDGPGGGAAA

`CCCN1CC[C@@H](COc2ccc3c(c2)C(=O)NC3)[C@H](c2ccc(OC)cc2)CC1` (racemic) [Compound C0004, (±)-6-{((trans)-5-(4-methoxyphenyl)-1-propylazepan-4-yl]methoxy}-2,3-dihydro-1H-isoindol-1-one]: the “Active TST Dose” value in the assay with adult male C57 mice (route sc) is recorded as at most 30 mg/kg. In the case of `CCCN1C2CCC1CC(c1ccc(OC)cc1)=C(COc1ccc3c(c1)C(=O)NC3)C2` (racemic) [Compound C0066, 6-{[4-(4-methoxyphenyl)-9-propyl-9-azabicyclo[4.2.1]non-3-en-3-yl]methoxy}-2,3-dihydro-1H-isoindol-1-one], in the assay on adult male C57 mice (route sc), the “Active TST Dose” value is reported as at most 10 mg/kg.

As for `CCCN1C2CCC1CC(c1ccc(OC)cc1)C(CCc1ccc3c(c1)C(=O)NC3)C2` (stereo not drawn) [Compound C0084, 6-{2-((cis)-4-(4-methoxyphenyl)-9-propyl-9-azabicyclo[4.2.1]nonan-3-yl]ethyl}-2,3-dihydro-1H-(trans)-isoindol-1-one], in the assay on adult male C57 mice (route sc), the “Active TST Dose” value is at most 30 mg/kg.

Turning to `COc1ccc(C2CCN(CCc3ccccc3)C(C)CC2COc2ccc3c(c2)C(=O)NC3)cc1` (stereo not drawn) [Compound C0457, 6-{[(trans)-5-(4-methoxyphenyl)-2-methyl-1-(2-phenylethyl)azepan-4-yl]methoxy}-2,3-dihydro-1H-isoindol-1-one], the “Active TST Dose” value in the assay on adult male C57 mice (route po) is reported as at most 60 mg/kg. For the compound `Fc1ccc([C@@H]2CCNC[C@H]2COc2ccc3c(c2)OCO3)cc1` [Paroxetine], the “hDOR G Span” value in assay [1] is on record as below 100. The “hDOR B Span” value in assay [2] (efficacy, normalized against DPDPE) is on record as below 100. Also, the EC50 in assay [2] (β-arrestin recruitment, HEK-293 cells, read-out: hDOR B pEC50 (converted)) was above 1 µM. In assay [3], the “selectivity for the delta-opioid receptor” value is listed as “non-selectivity”.

The record behind these values is patent US11912713B2, “7-membered aza-heterocyclic containing delta-opioid receptor modulating compounds, methods of using and making the same” (Trevena, Inc., priority 2017, dated 2024).
